Earlier results in patent US8088918B2, “Noncardiotoxic pharmaceutical compounds” (Williamsburg Holdings LLC, priority 2004, dated 2012).

Legend:
CYP2D6 = CYP2D6 (Homo sapiens, UniProt P10635); settings: cited from earlier work
[1] = oral administration; cited from earlier work
[2] = preclinical and clinical studies; cited from earlier work
[3] = healthy volunteers, therapeutic plasma concentrations; cited from earlier work

CYP2D6, sequence (P10635 whole entry): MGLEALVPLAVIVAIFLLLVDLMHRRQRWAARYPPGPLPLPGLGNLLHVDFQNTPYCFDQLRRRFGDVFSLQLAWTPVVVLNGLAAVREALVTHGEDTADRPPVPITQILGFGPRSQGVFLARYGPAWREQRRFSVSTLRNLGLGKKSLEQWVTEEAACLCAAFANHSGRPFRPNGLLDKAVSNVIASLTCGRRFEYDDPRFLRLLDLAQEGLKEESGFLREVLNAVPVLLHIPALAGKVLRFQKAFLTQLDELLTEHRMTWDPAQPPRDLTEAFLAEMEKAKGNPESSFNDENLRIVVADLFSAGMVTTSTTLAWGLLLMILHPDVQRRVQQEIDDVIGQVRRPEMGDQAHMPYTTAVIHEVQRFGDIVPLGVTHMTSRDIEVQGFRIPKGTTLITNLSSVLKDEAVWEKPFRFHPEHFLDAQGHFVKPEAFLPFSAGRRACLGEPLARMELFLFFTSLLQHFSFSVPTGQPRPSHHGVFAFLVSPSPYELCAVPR

| Compound | metabolism by CYP2D6 to the hydroxymetabolite (CYP2D6) | systemic availability [1] | cardiotoxicity compared with imipramine [2] | increase in mean QTc [3] |
| --- | --- | --- | --- | --- |
| C[N+](C)([O-])CCCN1c2ccccc2CCc2ccccc21 [imipramine-N-oxide, Imipramine-N-oxide] | abolished the metabolism of imipramine by CYP2D6 to the hydroxymetabolite | about 100% | significantly reduced |  |
| CC(CC(c1ccccc1)c1ccccc1)NC(C)(C)C (stereo not shown) [terodiline] |  |  |  | 23 ms |
